Values quoted from earlier work, collected in patent US20150190399A1, “NEW DIFFERENTIAL-RELEASE PHARMACEUTICAL COMPOSITION CONTAINING THREE ACTIVE PRINCIPLES” (LANDSTEINER SCIENTIFIC S.A. DE C.V., priority 2012, published 2015).

Details: in vivo

CCCCc1nc(Cl)c(CO)n1Cc1ccc(-c2ccccc2-c2nn[nH]n2)cc1 [Losartan potassium, losartan potassium]
half-life: approximately 2 hours
